Results from ChEMBL document CHEMBL5046245, “Identification of Pyruvate Carboxylase as the Cellular Target of Natural Bibenzyls with Potent Anticancer Activity against Hepatocellular Carcinoma via Metabolic Reprogramming” (J Med Chem, 2022).
Active and inactive are the calls of the source. The calls are words filed in the database; no cut-off is given here.

Tests used:
[1] = system: HepG2; assay: Effect on cell cycle arrest in human HepG2 cells assessed as increase accumulation of cells in G2/M phase at 20 nM measured upto 24 hrs hrs by propidium iodide staining based flow cytometry analysis; type: functional; conditions: time hrs <=24, TDE = time-dependent effect
[2] = system: HepG2; assay: Antiproliferative activity against human HepG2 cells assessed as inhibition of cell growth measured after 48 hrs by MTT assay; type: functional, cell-based; conditions: HepG2, 48 h
[3] = Inhibition of pyruvate carboxylase in human HCCLM3 cell lysate measured upto 24 hrs by PC assay kit; type: subcellular
[4] = system: HCCLM3; assay: Cytotoxicity against human HCCLM3 cells assessed as reduction in cell viability at 5 to 20 nM incubated for 48 hrs in presence of H2O2 by MTT assay; type: functional, cell-based; conditions: dose 5-20 nM
[5] = system: HCCLM3; assay: Induction of mitochondrial oxidative stress in human HCCLM3 cells assessed as accumulation of ROS at 10 nM by DCFH-DA staining based flow cytometry analysis; type: functional, cell-based; conditions: TDE = time-dependent effect
[6] = system: HCCLM3; assay: Inhibition of mitochondrial oxidative stress in PC knockout human HCCLM3 cells assessed as reduction in […] ratio at 10 nM; type: functional, cell-based
[7] = system: HCCLM3; assay: Induction of apoptosis in human HCCLM3 cells xenografted in NCR-nu/nu mouse assessed as increase in total apoptotic cells in tumor at 25 to 50 mg/kg, ip administered alternate days for 21 days and measured 26 days post implantation by TUNEL staining based confocal microscopic analysis; type: functional, organism-based; conditions: dose 25-50 mg/kg, time 21.0 day
[8] = system: HepG2; assay: Inhibition of pyruvate carboxylase in human HepG2 cells measured at 10 nM upto 24 hrs; type: cell-based; conditions: time hrs <=24
[9] = system: HepG2; assay: Cytotoxicity against human HepG2 cells assessed as cell viability at 62.5 to 250 nM preincubated for 48 hrs by MTT assay; type: functional, cell-based; conditions: dose 62.5-250 nM

IC50 [2]: 99.3 nM
IC50 [3]: 5.18 nM
SMILES: COc1ccc(CCc2cc(OC)c(OC)c(OC)c2)cc1O
Activity [1]: Tde
Activity [4]: Active
Activity [5]: Tde
inhibition [6]: Active
Activity [7]: Active
inhibition [8]: inactive
Activity [9]: Active
